Source: patent US20240415851A1, “REMODILINS TO PREVENT OR TREAT CANCER METASTASIS, GLAUCOMA, AND HYPOXIA” (The University of Chicago, priority 2019, published 2024)
“Also recorded” adds a separate entry of the source. Read-outs that look alike come from different tables or passages of the source.

Columns and labels:
[1] = test system: human lung-derived fibroblasts; assay: TGFβ-induced myofibroblast transformation (ACTA2, FN1 protein expression); format: cell-based; conditions: 1 ng/mL TGFβ1; 0, 1, 3, or 10 μM remodilin for 2 d; dose-dependent
Protocol: FIG. 1 Remodilins inhibit myofibroblast transformation (MFT). Serum deprived human lung-derived fibroblasts were treated with 1 ng/mL TGFβ1 (or not, left lane) and 0, 1, 3, or 10 μM remodilin for 2 d. Four remodilins each inhibited smooth muscle α-actin (ACTA2) or fibronectin-1 (FN1) protein expression (markers of MFT).

MDA-MB-231 cells [2] = assay: Spheroid invasion into collagen gels; format: cell-based, human; conditions: 10 µM remodilin; 48 hrs; collagen 2 mg/mL; DMEM 0.5% FBS; vs 0.1% DMSO
Protocol: FIG. 3 MDA-MB-231 cells were grown into spheroids, then allowed to migrate into collagen gels in DMEM containing 0.5% FBS and remodilin (10 µM remodilin 39 [top row] or remodilin 83 [bottom row]) or diluent (0.1% DMSO) for 48 hrs (representative 48 hr images shown).
(§1) Remodilins 39 and 83 each slowed the invasion of triple negative MDA-MB-231 human breast cancer cells from spheroids into a surrounding collagen gel (FIG. 3), and also slowed the serum-directed invasion MDA-MB-231-derived BM1 cells through Matrigel-coated transwells (FIG. 4). Remodilins 39 and 83 also slowed the migration of MDA-MB-231 cells in a scratch wound healing assay (FIG. 5).

[3] = test system: MDA-MB-231-derived BM1 cells; assay: 10% FBS-directed invasion through Matrigel-coated transwell membrane; format: cell-based, human; conditions: dose-dependent; n=3/condition
Excerpt: FIG. 4 Remodilins 39 and 83 inhibited 10% FBS-directed invasion migration of MDA-MB-231-derived BM1 cells through a Matrigel-coated transwell mem-brane, in a dose-dependent fashion. Mean+SEM shown; n=3/condition. **P<0.01; ***P<0.001; ****P<0.0001.
as §1

MDA-MB-231 cells [4] = assay: Scratch wound healing migration assay; format: cell-based, human; conditions: dose-dependent; 1, 3, 10 uM; n=8 wells/condition
Protocol: Mean+SD shown; n=8 wells/condition. P<0.0001 for 1, 3, & 10 uM remodilin 39 vs DMSO (control) by 2-way ANOVA/Dunnett's.
as §1

MDA-MB-231 cells [5] = assay: Alamar blue assay (growth inhibition, cytotoxicity); format: cell-based, human; conditions: concentrations to at least 10 uM
[6] = In vivo PK and oral bioavailability, single dose; conditions: mouse, plasma, wild-type mice, 10 mg/kg single dose
Protocol: (§2) The in vivo bioavailability, plasma half-life, Cmax, and area under the curve (AUC) were determined after administration of single 10 mg/kg doses of remodilins 39 and 83 to mice (Table 1). Selected tissue concentrations of remodilins 39 and 83 after single oral doses of 10 or 50 mg/kg (FIG. 6). The PK properties of these remodilins differ substantially.

[7] = Tissue and plasma concentrations after single oral doses; format: in vivo; conditions: mice
Protocol: FIG. 6 Tissue and plasma remodilin concentrations after single oral doses (filled circles 50 mg/kg; open circles-10 mg/kg). […] The greater oral bioavailability, longer half-life, and inter-tissue variation of remodilin 83 concentration are readily evident. Mean+SEM shown; n=3/condition.
as §2
(§3) PK was re-evaluated after 14 days of intraperitoneal (IP) or oral BID dosing. […] Plasma levels after single or 15 consecutive once-daily IP 10 mg/kg doses of remodilin 39 were examined (FIG. 8). The plasma concentration of 10 μM remodilin 39 corresponds to 5314 ng/mL.

[8] = Tissue concentrations after 14 d BID dosing (IP or PO); format: in vivo; conditions: for concentration at 14 days: liver, lung, intraperitoneal
Protocol: Mean+SEM shown; n=3/condition. Dotted lines show concentration corresponding to 10 μM.
as §3
(§4) In the experiments corresponding to FIG. 7, remodilin 83 was dissolved in 20% Solutol in PBS.

[9] = Lipophilicity and dissolution in vehicles; format: physicochemical
Protocol: as §4

HIF1α [10] = assay: TGFβ-induced HIF1α accumulation in fibroblasts; format: cell-based, human; conditions: 48 hrs TGFβ treatment
Excerpt: (§5) FIG. 12A-12B Remodilins inhibit accumulation of hypoxia-inducible factor-1 alpha (HIF1α) protein. FIG. 12A Effect of remodilin 83 on TGFβ-induced phosphorylation of AKT and ERK1/2 and TGFβ-induced HIF1α accumulation in human fibroblasts. FIG. 12B Both remodilins 39 and 83 inhibited HIF1α accumulation in HEK293 cells exposed to 6 hrs of hypoxia (1% 02).
(§6) The influence of remodilin 83 on HIF-1α accumulation in TGFβ-treated fibroblasts was examined. […] Similarly, both remodilins 39 and 83 inhibited HIF1α accumulation in HEK293 cells exposed to 6 hrs of hypoxia (1% O2; FIG. 12B). […] N—normoxia; H—hypoxia.

AKT = assay: TGFβ-induced AKT phosphorylation in fibroblasts; format: cell-based; conditions: human fibroblasts
Excerpt: as §5, §6

ERK1/2 = assay: TGFβ-induced ERK1/2 phosphorylation in fibroblasts; format: cell-based; conditions: human fibroblasts
Excerpt: as §5, §6

HIF1α [11] = assay: Hypoxia-induced HIF1α accumulation in HEK293 cells; format: cell-based; conditions: 6 hrs steady hypoxia (1% oxygen); 3 μM or 10 µM
Excerpt: as §5, §6

HIF1α [12] = assay: Hypoxia-induced HIF1α accumulation in HEK293T cells (Western blot); format: cell-based; conditions: 6 hrs steady hypoxia; 3 or 10 μM
Excerpt: FIG. 14A-14B Remodilins' effects on hypoxia-induced accumulation of HIF1α. […] FIG. 14B HIF1α was absent in cells ex-posed to 6 hrs normoxia (N).
OSA is a chronic, morbid disease affecting about 10% of the adult population, in which frequent episodes of upper airway collapse obstruct inspiratory airflow and cause IH. These episodes of IH disrupt sleep but perhaps more importantly accelerate multiple cardiometabolic abnormalities, including systemic hypertension, cardiovascular disease, stroke, and abnormal glucose metabolism. Therefore, remodilins were examined for their ability on inhibit hypoxia-induced accumulation of HIF1α, a transcription factor that mediates many of the adverse responses to IH.

[13] = test system: A549 lung adenocarcinoma cells; assay: Oxygen consumption rate and extracellular acidification rate; format: cell-based; conditions: treated at time=30 min
Protocol: FIG. 13A-13B Effect of remodilin 83 on oxygen consumption rate (OCR) and extracellular acidification rate (ECAR). FIG. 13A A549 cells were treated with remodilin 83 (open circles) or its vehicle (filled circles) at time=30 min, and oxygen consumption rate (OCR) was continuously measured over time. FIG. 13B A549 cells were treated with remodilin 83 (open circles) or its vehicle (filled circles) at time=30 min, and extracellular acidification rate (ECAR) was measured continuously over time. Cells were sequentially treated with oligomycin (ATP synthase inhibitor), FCCP (uncoupler) and antimycin A/rotenone (A+R) (complex III and I inhibitor).
A549 cells were treated with remodilin 83 (open circles) or its vehicle (filled circles) at time=30 min, and oxygen consumption rate (OCR) and extracellular acidification rate (ECAR) were measured continuously over time. Cells were sequentially treated with oligomycin (ATP synthase inhibitor), FCCP (uncoupler) and antimycin A/rotenone (A+R) (complex III and I inhibitor).

Sprague Dawley rats = assay: Intermittent hypoxia (IH)-induced systemic hypertension; format: in vivo
Protocol: FIG. 15A-15B Remodilin's effect on hypertension and weight. […] N=2/group; DO-Day 0 (prior to IH), D11-Day 11.
Remodilins were tested for their ability to inhibit the systemic hypertension induced in rats subjected to IH in vivo.

CC1CN(S(=O)(=O)c2ccc(NC(=O)c3ccc(Br)c(I)c3)cc2)CCN1 (centres unmarked) [Remodilin 83, 4-Bromo-3-iodo-N-(4-((3-methylpiperazin-1-yl)sulfonyl)phenyl)benzamide]
TGFβ-stimulated transformation of human lung-derived fibroblasts to myofibroblast phenotype (ACTA2 or FN1 protein expression) [1]: blunt TGFβ-stimulated transformation
invasion of MDA-MB-231 cells from spheroids into collagen gels (MDA-MB-231 cells [2]): inhibited invasion
10% FBS-directed invasion migration of BM1 cells through Matrigel-coated transwell membrane [3]: inhibited
migration of confluent MDA-MB-231 cells into circular scratch wound (MDA-MB-231 cells [4]): inhibited migration
growth inhibition or cytotoxicity by Alamar blue assay (MDA-MB-231 cells [5]): Neither remodilin is growth-inhibitory or cytotoxic
bioavailability ([6]; po): 22%
AUC [6]: 1300 ng·h/mL
Cmax [6]: 0.38 µM
half-life [6]: 8.4 h
maintenance of tissue or plasma levels above 10 μM throughout the day ([7]; single oral doses): did not maintain tissue or plasma levels above 10 μM throughout the day
tissue distribution ([7]; single oral doses of 10 or 50 mg/kg (FIG. 6)): highly preferentially distributed to the lung
variation of tissue concentrations over the 12-hour dosing period, IP ([8]; after 14 d BID dosing, given IP): relatively steady within each tissue
variation of tissue concentrations over the 12-hour dosing period, PO ([8]; after 14 d BID dosing, given PO): greater variation over time
Brain levels ([8]; after 14 days BID dosing): low
concentration at 14 days ([8]; female, Balb/c, mouse, heart, kidney, 40 mg/kg BID IP, 14 days, read-out: levels in liver, heart, lung, and kidney): ~10 µM
mortality or gross clinical evidence of toxicity ([8]; mouse, in vivo): no mortality or gross clinical evidence of toxicity
concentration at 14 days ([8]; mouse, 14-day 40 mg/kg BID IP in 20% Solutol, female Balb/c mice, read-out: liver and lung concentrations): < 10 µM
lipophilicity / lipid solubility [9]: lipophilic; also recorded: highly lipid soluble
dissolution in 20% Solutol or DMSO ([9]; 20% Solutol or DMSO): readily dissolved
TGFβ-induced HIF1α accumulation in human fibroblasts (HIF1α [10]): this response was absent
TGFβ-induced AKT phosphorylation (AKT): inhibited TGFβ-induced AKT phosphorylation
TGFβ-induced ERK1/2 phosphorylation (ERK1/2): not TGFβ-induced ERK1/2 phosphorylation
HIF1α accumulation in HEK293 cells exposed to hypoxia (HIF1α [11]): blunted HIF1α accumulation substantially
HIF1α accumulation in HEK293T cells exposed to hypoxia (HIF1α [12]): inhibit the accumulation of HIF1α
extracellular acidification rate (ECAR), marker of glycolysis [13]: decreases both mitochondrial respiration and glycolysis
oxygen consumption rate (OCR), mitochondrial respiration [13]: decreases both mitochondrial respiration and glycolysis
systemic hypertension induced by 10 days of IH (8 hrs/day) (Sprague Dawley rats; 20 mg/kg BID IP, N=2/group): blocks the systemic hypertension
health as judged by clinical observation or weight gain (Sprague Dawley rats; D0 to D11): no obvious effect on health
blood pressure in rats unexposed to IH (Sprague Dawley rats; N=2/group): little effect on blood pressure
